Activity calls are given as the source filed them.
What was measured:
[1] = cells; conditions: HEK293
[2] = toxicity to A549 lung cells – cell-based, plate reader, dry powder, set 6, cytotoxicity control, dose response (AID 743312); format: functional
[3] = CellTiter-Glo luminescence survival assay, SW480 colon tumor line, concentration-response curve, half-maximal inhibitory concentration (AID 1117338); format: functional
[4] = cytotoxicity toward HT-29 cells – cell-based, CellTiter-Glo luminescence, IC50, dose response (AID 1117330); format: functional
[5] = RKO cell viability reduction, dose response, CellTiter-Glo luminescence (AID 1117322); format: functional
[6] = SNU-C1 cell viability reduction, dose response, CellTiter-Glo luminescence (AID 1117323); format: functional, cell-based
[7] = system: P388/ADR; test: cells; format: functional; conditions: Mus musculus
[8] = HCT116 cell viability decrease, GSK3B pretreatment – CellTiter-Glo, IC50, dose response (AID 1117339); format: functional; conditions: HCT-116
[9] = cytotoxicity toward HCT116 cells – cell-based, CellTiter-Glo luminescence, IC50, dose response (AID 1117332); format: functional; conditions: HCT-116
[10] = system: P388; test: cells; format: functional; conditions: Mus musculus
[11] = Reduced DLD-1 viability, concentration-response, CellTiter-Glo luminescence (AID 1117352); format: functional
[12] = cytotoxicity toward Colo320 cells – cell-based, CellTiter-Glo luminescence, IC50, dose response (AID 1117334); format: functional; conditions: COLO 320
[13] = molecular target: NAD-dependent protein deacylase sirtuin-5, mitochondrial (Homo sapiens, UniProt Q9NXA8); test: blockers of sirtuin-5 peptide desuccinylation – biochemical, fluorescence imaging, cherry-pick, set 6, dose response (AID 720597)
NAD-dependent protein deacylase sirtuin-5, mitochondrial, sequence (Q9NXA8 whole entry): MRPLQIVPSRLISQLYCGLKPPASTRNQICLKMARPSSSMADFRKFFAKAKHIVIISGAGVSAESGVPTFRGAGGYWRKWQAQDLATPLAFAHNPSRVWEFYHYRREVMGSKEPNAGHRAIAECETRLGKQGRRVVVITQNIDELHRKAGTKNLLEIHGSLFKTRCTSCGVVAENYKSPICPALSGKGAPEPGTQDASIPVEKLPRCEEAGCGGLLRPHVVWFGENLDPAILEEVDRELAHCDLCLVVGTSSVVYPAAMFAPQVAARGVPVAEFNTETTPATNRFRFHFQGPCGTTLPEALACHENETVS

[14] = cells; format: functional, cell-based; conditions: INS-1E
[15] = rise of 2N DNA cells, HeLa – IC50, dose response (AID 1117349); format: functional, cell-based
[16] = IC50 of insulin release inhibition, rat insulinoma INS-1E line, 5 mM glucose, cell-based (AID 1117331); format: functional
[17] = rise of 4N DNA cells, HeLa – IC50, dose response (AID 1117351); format: functional, cell-based
[18] = general mammalian cell viability loss – activator set, cherry-pick, cytotoxicity control for miR-122 modulator project, dose response (AID 720690); format: functional, cell-based;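 also: HEK293T human cells scored for general mammalian cytotoxicity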
[19] = CMV-driven luciferase expression suppression in HEK293 – cell-based, luminescence, dry powder, counter-screen for Pax8 inhibitor project, dose response (AID 743020); format: functional
[20] = general mammalian cell viability loss – inhibitor set, cherry-pick, set 2, cytotoxicity control for miR-122 modulator project, dose response (AID 720697); format: functional, cell-based
[21] = molecular target: Paired box protein Pax-8 (Homo sapiens, UniProt Q06710); test: PAX8 transcriptional activity inhibition in RMG-I – RMG-I cells, luciferase, cherry-pick, dose response (AID 687027); format: functional, cell-based;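 also: luciferase reporter driven by Pax8 target thyroperoxidase promoter measured by SteadyGlo luminescence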
Paired box protein Pax-8, sequence (Q06710 whole entry): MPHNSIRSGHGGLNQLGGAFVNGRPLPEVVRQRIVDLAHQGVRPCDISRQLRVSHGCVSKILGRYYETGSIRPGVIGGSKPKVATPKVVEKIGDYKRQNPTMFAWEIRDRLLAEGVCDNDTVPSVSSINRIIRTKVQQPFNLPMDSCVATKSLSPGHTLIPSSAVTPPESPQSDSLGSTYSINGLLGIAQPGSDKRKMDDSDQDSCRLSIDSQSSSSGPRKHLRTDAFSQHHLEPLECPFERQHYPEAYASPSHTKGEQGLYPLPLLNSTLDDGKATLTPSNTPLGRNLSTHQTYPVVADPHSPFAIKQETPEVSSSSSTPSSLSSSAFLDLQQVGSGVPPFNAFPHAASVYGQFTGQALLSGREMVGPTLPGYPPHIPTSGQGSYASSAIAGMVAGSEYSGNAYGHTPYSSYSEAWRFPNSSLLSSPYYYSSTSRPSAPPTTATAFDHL

[22] = inhibitors of orthopox intermediate gene expression, dose response, cell-based, single fluorophore reporter, dry powder (AID 1117271); format: functional
[23] = lung carcinoma cell viability loss – CellTiter-Glo luminescence, dry powder, set 17, dose response (AID 1117284); format: functional, cell-based; conditions: A549
[24] = Single fluorophore orthopox expression reporter, late gene expression Measured in Cell-Based and Microorganism Combination System Using Plate Reader - 2142-08_Inhibitor_Dose_DryPowder_Activity.; format: functional
[25] = Orthopox viral replication plaque formation Measured in Cell-Based and Microorganism Combination System Using Imaging - 2142-05_Inhibitor_Dose_DryPowder_Activity.; format: functional
[26] = cells; conditions: HEK293; remark: listed apart in the source
[27] = molecular target: T1, Runt-related transcription factor 1/Core-binding factor subunit beta (Homo sapiens, UniProt Q01196+Q13951); test: disruptors of Runt domain/CBFb-SMMHC interaction – biochemical, FRET, Cerulean-Runt, Venus-CBFb-SMMHC, uHTS, […] (AID 1434); format: protein assay
T1 sequence (Q01196 whole entry, the tested form may be a part): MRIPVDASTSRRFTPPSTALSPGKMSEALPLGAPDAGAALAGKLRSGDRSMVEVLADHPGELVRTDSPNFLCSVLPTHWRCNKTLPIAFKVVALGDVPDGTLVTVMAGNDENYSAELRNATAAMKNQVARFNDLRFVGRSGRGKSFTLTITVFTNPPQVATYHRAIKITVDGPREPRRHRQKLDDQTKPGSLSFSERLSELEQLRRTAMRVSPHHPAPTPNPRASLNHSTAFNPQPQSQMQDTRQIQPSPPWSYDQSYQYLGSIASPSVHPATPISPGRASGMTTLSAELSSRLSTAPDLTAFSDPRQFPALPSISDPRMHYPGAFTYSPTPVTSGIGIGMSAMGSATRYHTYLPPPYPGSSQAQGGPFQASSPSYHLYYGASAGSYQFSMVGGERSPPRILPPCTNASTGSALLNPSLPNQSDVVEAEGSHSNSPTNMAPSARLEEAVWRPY
T1 sequence (Q13951 whole entry, the tested form may be a part): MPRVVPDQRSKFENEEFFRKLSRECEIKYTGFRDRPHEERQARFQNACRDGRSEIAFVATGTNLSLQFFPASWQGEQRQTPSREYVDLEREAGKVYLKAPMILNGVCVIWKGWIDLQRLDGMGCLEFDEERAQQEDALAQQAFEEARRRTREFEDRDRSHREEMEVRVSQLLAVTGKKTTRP

[28] = cells; conditions: A549
[29] = molecular target: T1, Runt-related transcription factor 1/Core-binding factor subunit beta; test: Runt domain/CBFb-SMMHC interaction disruptors – biochemical, TR-FRET (AID 1438); format: protein assay
[30] = system: HEK293; test: viability loss in HEK293T cells – cell-based, ATP luminescence, cherry-pick samples, cytotoxicity control, dose response (AID 687005); format: functional; conditions: Homo sapiens;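 also: cells exposed to compound for 48 hours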
[31] = HEK293 Cytotoxicity Assay Measured in Cell-Based System Using Plate Reader - 7071-01_Inhibitor_Dose_CherryPick_Activity_Set2.; format: functional
[32] = potency of ADAM10 substrate cleavage blockers – biochemical, QFRET, dose response (AID 743254);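 also: ADAM10 enzyme with the DM2 quenched FRET peptide as substrate; EDANS fluorescence gain as the protease cuts the substrate; inhibitor potency against ADAM10 proteolytic activity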
[33] = molecular target: Disintegrin and metalloproteinase domain-containing protein 17 (Homo sapiens, UniProt P78536); test: inhibition of ADAM17 substrate cleavage – biochemical, quenched FRET substrate, counter-screen for ADAM10 exosite inhibitor project, dose response (AID 743253)
Disintegrin and metalloproteinase domain-containing protein 17, sequence (P78536 whole entry, the tested form may be a part): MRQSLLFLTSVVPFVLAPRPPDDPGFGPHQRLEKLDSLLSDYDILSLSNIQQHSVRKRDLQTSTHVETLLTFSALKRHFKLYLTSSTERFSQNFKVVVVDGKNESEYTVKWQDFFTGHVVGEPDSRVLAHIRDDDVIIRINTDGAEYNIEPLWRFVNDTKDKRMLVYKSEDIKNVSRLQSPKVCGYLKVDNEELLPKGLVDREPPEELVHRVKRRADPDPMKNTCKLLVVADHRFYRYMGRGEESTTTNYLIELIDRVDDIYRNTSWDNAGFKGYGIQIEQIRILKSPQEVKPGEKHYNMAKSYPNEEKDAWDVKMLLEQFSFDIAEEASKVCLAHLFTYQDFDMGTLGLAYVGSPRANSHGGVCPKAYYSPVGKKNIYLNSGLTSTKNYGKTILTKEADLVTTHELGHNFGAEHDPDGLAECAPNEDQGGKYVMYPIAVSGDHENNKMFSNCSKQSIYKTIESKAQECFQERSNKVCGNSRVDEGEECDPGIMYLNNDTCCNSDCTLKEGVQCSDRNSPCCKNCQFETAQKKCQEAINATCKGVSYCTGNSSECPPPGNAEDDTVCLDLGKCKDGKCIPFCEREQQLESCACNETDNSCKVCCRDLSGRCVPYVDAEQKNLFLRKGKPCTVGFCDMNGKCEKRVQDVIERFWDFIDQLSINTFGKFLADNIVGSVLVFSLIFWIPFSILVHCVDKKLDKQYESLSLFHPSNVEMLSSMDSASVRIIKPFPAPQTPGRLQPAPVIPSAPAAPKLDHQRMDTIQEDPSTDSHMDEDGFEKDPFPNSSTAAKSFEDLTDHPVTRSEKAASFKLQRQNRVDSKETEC

For `CC(C)c1ccccc1NCCn1c(=S)[nH]c2ccccc21`, which AC50 [1] is on record?
The AC50 was 27.5 µM (active).

And the AC50 [2]?
The AC50 was 21.1 µM (active).

With `CCCCCCCCCCCCCCCCOP(=O)([O-])OCC[N+](C)(C)C` [MILTEFOSINE] as the molecule, how does the IC50 [3] read?
Its IC50 is 0.478 µM (active).

What about the IC50 [4] of the same molecule?
Its IC50 is 1.96 µM (active).

What about the IC50 [5] of the same molecule?
Its IC50 is 0.437 µM (active).

And the IC50 [6]?
Its IC50 is 0.965 µM (active).

And the GI50 [7]?
The GI50 was 35.4 µM (inactive).

And the IC50 [8]?
Its IC50 is 1.48 µM (active).

And the IC50 [9]?
The IC50 was 3.39 µM (active).

And the GI50 [10]?
Its GI50 is 21.2 µM (inactive).

What about the IC50 [11] of the same molecule?
The IC50 was 1.23 µM (active).

What about the IC50 [12] of the same molecule?
Its IC50 is 1.49 µM (active).

With `CCC(=O)N1C[C@@H](C)[C@@H](OC)CN(C)C(=O)c2cc(NC(=O)CC(F)(F)F)ccc2OC[C@@H]1C` as the molecule, how does the AC50 [13] read?
The AC50 was 4 µM (active).

What does the source list for `Nc1ccc2cc3ccc(N)cc3nc2c1` [PROFLAVINE HEMISULFATE]?
IC50 [14]: > 33.3 µM (inactive); IC50 [15]: > 10 µM (inactive); IC50 [16]: 20.6 µM (inactive); IC50 [17]: > 10 µM (inactive)

Which AC50 [18] does the source give for `C[C@H](CO)N1C[C@H](C)[C@@H](CN(C)C(=O)c2ccc3c(c2)OCO3)Oc2cc(C#Cc3ccccc3F)ccc2S1(=O)=O` here?
The AC50 was 17.7 µM (active).

What about the AC50 [19] of the same molecule?
The AC50 was 62.6 µM (active).

And the AC50 [20]?
Its AC50 is 9.58 µM (active).

And the AC50 [21]?
Its AC50 is 6.89 µM (active).

What does the source list for `C[C@@H](O)C#Cc1ccc2c(c1)O[C@@H](CN(C)Cc1ccc(-c3ccccc3Cl)cc1)[C@@H](C)CN([C@@H](C)CO)S2(=O)=O`?
AC50 [22]: 1.43 µM (active); AC50 [23]: > 52 µM (inactive); AC50 [24]: 1.18 µM (active); AC50 [25]: 0.601 µM (active)

Which AC50 [26] does the source give for `O=c1[nH]c(=O)c2nc(-c3ccc(Cl)cc3)cnc2[nH]1` here?
Its AC50 is > 52 µM (inactive).

And the IC50 [27]?
Its IC50 is 0.643 µM (active).

What about the AC50 [28] of the same molecule?
Its AC50 is > 52 µM (inactive).

What about the IC50 [29] of the same molecule?
The IC50 was > 100 µM (inactive).

For `COC(=O)C1=C(C)N(Cc2ccc(Cl)cc2)C(=S)NC1c1cccc(F)c1` (stereo not drawn), which AC50 [30] is on record?
Its AC50 is 21.4 µM (active).

What about the AC50 [31] of the same molecule?
The AC50 was 21.4 µM (active).

For `O=C(NC(Cc1c[nH]c2ccccc12)C(=O)Nc1ccc(OC(F)(F)F)cc1)c1cccs1` (stereo not drawn), which IC50 [32] is on record?
The IC50 was 11 µM (inactive).

What about the IC50 [33] of the same molecule?
The IC50 was > 69.5 µM (inactive).
